The nature of the assay: Inhibition of [3H]- pentazocine binding against guinea pig brain Sigma opioid receptor type 1.

Our source for the IC50 values is BindingDB's records for doi:10.1021/jm990277d (Warner-Lambert, 2000).

The IC50 is the midpoint of a concentration-inhibition curve. A higher IC50 goes with a need for much substance.

Structures are written as SMILES.

The molecule `O=C1COc2cc(CN3CCN(c4ccc(Cl)cc4)CC3)ccc2N1` [7-[4-(4-Chloro-phenyl)-piperazin-1-ylmethyl]-4H-benzo[1,4]oxazin-3-one] showed an IC50 of 285 nM.
